Test results published in patent US12427134B2, “Methods of reducing the risk of cardiovascular events in a subject with atrial fibrillation and/or atrial flutter” (priority 2019, dated 2025).

System: hypertriglyceridemic patients with cardiovascular disease or at high risk for cardiovascular disease
Test: REDUCE-IT: total (first and subsequent/recurrent) ischemic events analyses (negative binomial, Andersen-Gill, Wei-Lin-Weissfeld, joint frailty)
Type: in vivo, human
Conditions: for Cardiovascular Death, HR (95% CI) / Non-fatal Cardiovascular Event, HR (95% CI): joint frailty model; for Key secondary composite endpoint, HR (95% CI) / Primary composite endpoint, HR (95% CI): modified WLW
Protocol: The primary outcome for the study was total recurrent events consisting of the composite of cardiovascular death, nonfatal myocardial infarction, nonfatal stroke, coronary revascularization, or hospitalization for unstable angina. Recurrent event analyses were also performed for the key secondary endpoint, a composite of cardiovascular death, non fatal myocardial infarction, or non-fatal stroke. For each of these composite endpoints, the effects of icosapent ethyl in the secondary and primary prevention strata were examined separately.
Demographic and baseline disease characteristics are presented using frequencies and percentages for categorical variables and medians with interquartile ranges for continuous variables. Between treatment group comparisons were derived using the chi-square test for categorical variables and Wilcoxon rank test for continuous variables. All clinical endpoint events used in the efficacy analyses were adjudicated by an independent Clinical Endpoint Committee (CEC) who were blinded to the treatment assignment. Since the primary efficacy endpoint was the time from randomization to the first occurrence of any component of the composite endpoint, and recurrence of such events within each patient is possible, a pre-specified analysis using a Cox proportional-hazard with the counting-process formulation of Andersen and Gill was performed to model the first and all recurrent cardiovascular events. Hazard ratios (HR) and corresponding 95% confidence intervals (CI) are reported from this model. In addition, as a marginal model and an extension of survival models based on the Cox proportional hazard model, the modified Wei-Lin-Weissfeld (WLW) method for analysis of recurrent events in the presence of deaths was carried out as a supportive analysis. In addition, as pre-specified, a recurrent event analysis using the Andersen-Gill and Wei-Lin-Weissfeld methods were carried out for the individual primary event components other than CV death. Though not pre-specified, additional recurrent event analyses were performed for the key secondary endpoint, which is a composite of CV death, non-fatal MI, or non-fatal stroke, and for the primary endpoint and the key secondary endpoint in the primary and secondary prevention strata to explore further the consistency of clinical benefit of icosapent ethyl. In subgroup analyses of the two cardiovascular risk strata (i.e., primary and secondary prevention), site-level discrepancies in cardiovascular risk group assignment occurring at entry and detected during the study (1.8%) were adjusted to conform with documented medical history data prior to randomization. All efficacy analyses were performed according to the intention-to-treat principle. All tests were based on a 2-sided nominal significance level of 5% with no adjustments for multiple comparisons.
The following study was a multi-center, placebo-controlled clinical trial the details of which are described above in Example 1, the REDUCE-IT design. […] The main outcomes were total primary composite endpoint events defined as cardiovascular death, nonfatal myocardial infarction, nonfatal stroke, coronary revascularization, or hospitalization for unstable angina and total key secondary composite endpoint events defined as cardiovascular death, nonfatal myocardial infarction, or nonfatal stroke. In the context of this study, total events refer to any first event as well as any subsequent event. Differences in total events were determined using other statistical models, including Andersen-Gill, Wei-Lin-Weisfeld (Li and Lagakos), both pre-specified, and a post hoc and joint-frailty analysis.
For the present prespecified analysis, the primary outcome was the total of first plus subsequent ischemic events consisting of the composite of cardiovascular death, nonfatal myocardial infarction, nonfatal stroke, coronary revascularization, or hospitalization for unstable angina. […]

[1] = Andersen-Gill (I), adjusted, full dataset
[2] = Andersen-Gill (I), adjusted, reduced dataset
[3] = Andersen-Gill (I), unadjusted, full dataset
[4] = Andersen-Gill (I), unadjusted, reduced dataset
[5] = Andersen-Gill (II), adjusted, full dataset
[6] = Andersen-Gill (II), adjusted, reduced dataset
[7] = Andersen-Gill (II), unadjusted, full dataset
[8] = Andersen-Gill (II), unadjusted, reduced dataset
[9] = as summarised in the Example 6 conclusion
[10] = including same-day recurrent events, ITT, denominator total number of events in category
[11] = key secondary endpoint, adjusted, reduced dataset
[12] = key secondary endpoint, unadjusted, reduced dataset
[13] = primary endpoint, adjusted, reduced dataset
[14] = primary endpoint, unadjusted, reduced dataset
[15] = first event, adjusted, full dataset
[16] = first event, adjusted, reduced dataset
[17] = first event, unadjusted, full dataset
[18] = first event, unadjusted, reduced dataset
[19] = second event, adjusted, full dataset
[20] = second event, adjusted, reduced dataset
[21] = second event, unadjusted, full dataset
[22] = second event, unadjusted, reduced dataset
[23] = third event, adjusted, full dataset
[24] = third event, adjusted, reduced dataset
[25] = third event, unadjusted, full dataset
[26] = third event, unadjusted, reduced dataset
[27] = negative binomial, adjusted, full dataset
[28] = negative binomial, adjusted, reduced dataset
[29] = negative binomial, unadjusted, full dataset
[30] = negative binomial, unadjusted, reduced dataset
[31] = per 100 patients treated for five years
[32] = per 1000 patients treated for five years
[33] = primary composite endpoint, after reduction, share of overall events in category
[34] = total events including same-day recurrent events, ITT, denominator total number of events in category

CC/C=C\C/C=C\C/C=C\C/C=C\C/C=C\CCCC(=O)OCC [AMR101, eicosapentaenoic acid ethyl ester]
Total key secondary composite endpoint events, HR (95% CI) [1]: 0.71 | Total primary composite endpoint events, HR (95% CI) [1]: 0.68 | Total key secondary composite endpoint events, HR (95% CI) [2]: 0.72 | Total primary composite endpoint events, HR (95% CI) [2]: 0.69 | Total key secondary composite endpoint events, HR (95% CI) [3]: 0.71 | Total primary composite endpoint events, HR (95% CI) [3]: 0.68 | Total key secondary composite endpoint events, HR (95% CI) [4]: 0.72 | Total primary composite endpoint events, HR (95% CI) [4]: 0.69 | Total key secondary composite endpoint events, HR (95% CI) [5]: 0.71 | Total primary composite endpoint events, HR (95% CI) [5]: 0.68 | Total key secondary composite endpoint events, HR (95% CI) [6]: 0.72 | Total primary composite endpoint events, HR (95% CI) [6]: 0.69 | Total key secondary composite endpoint events, HR (95% CI) [7]: 0.71 | Total primary composite endpoint events, HR (95% CI) [7]: 0.68 | Total key secondary composite endpoint events, HR (95% CI) [8]: 0.72 | Total primary composite endpoint events, HR (95% CI) [8]: 0.69 | Total key secondary endpoints, number of events (Example 2, overall, 861 with placebo): 590 | Total key secondary endpoint events, rate ratio (Example 3): 0.72 | Total key secondary endpoint events, rate ratio [9]: 0.71 | Total primary endpoint events, rate ratio [9]: 0.69 | Key Secondary Endpoint Events: Others, % [10]: (52.9) % | Key Secondary Endpoint Events: ≥1 event, % [10]: (43.1) % | Key Secondary Endpoint Events: ≥2 events, % [10]: (37.9) % | Key Secondary Endpoint Events: ≥3 events, % [10]: (35.1) % | Key Secondary Endpoint Events: ≥4 events, % [10]: (42.9) % | Primary Endpoint Events: Others, % [10]: (35.0) % | Primary Endpoint Events: ≥1 event, % [10]: (43.9) % | Primary Endpoint Events: ≥2 events, % [10]: (39.2) % | Primary Endpoint Events: ≥3 events, % [10]: (35.3) % | Primary Endpoint Events: ≥4 events, % [10]: (27.9) % | Cardiovascular Death, HR (95% CI) [11]: 0.79 | Non-fatal Cardiovascular Event, HR (95% CI) [11]: 0.68 | Cardiovascular Death, HR (95% CI) [12]: 0.79 | Non-fatal Cardiovascular Event, HR (95% CI) [12]: 0.68 | Cardiovascular Death, HR (95% CI) [13]: 0.80 | Non-fatal Cardiovascular Event, HR (95% CI) [13]: 0.67 | Cardiovascular Death, HR (95% CI) [14]: 0.80 | Non-fatal Cardiovascular Event, HR (95% CI) [14]: 0.66 | Key secondary endpoint: fatal events, % (key secondary composite endpoint, after reduction, share of overall events in category): 45.0% | Key secondary endpoint: total events before reduction, % (key secondary composite endpoint, before reduction, share of overall events in category): 42.0% | Key secondary composite endpoint, HR (95% CI) [15]: 0.74 | Primary composite endpoint, HR (95% CI) [15]: 0.75 | Key secondary composite endpoint, HR (95% CI) [16]: 0.74 | Primary composite endpoint, HR (95% CI) [16]: 0.75 | Key secondary composite endpoint, HR (95% CI) [17]: 0.74 | Primary composite endpoint, HR (95% CI) [17]: 0.76 | Key secondary composite endpoint, HR (95% CI) [18]: 0.74 | Primary composite endpoint, HR (95% CI) [18]: 0.76 | Key secondary composite endpoint, HR (95% CI) [19]: 0.75 | Primary composite endpoint, HR (95% CI) [19]: 0.68 | Key secondary composite endpoint, HR (95% CI) [20]: 0.75 | Primary composite endpoint, HR (95% CI) [20]: 0.68 | Key secondary composite endpoint, HR (95% CI) [21]: 0.75 | Primary composite endpoint, HR (95% CI) [21]: 0.69 | Key secondary composite endpoint, HR (95% CI) [22]: 0.75 | Primary composite endpoint, HR (95% CI) [22]: 0.69 | Key secondary composite endpoint, HR (95% CI) [23]: 0.79 | Primary composite endpoint, HR (95% CI) [23]: 0.70 | Key secondary composite endpoint, HR (95% CI) [24]: 0.79 | Primary composite endpoint, HR (95% CI) [24]: 0.69 | Key secondary composite endpoint, HR (95% CI) [25]: 0.79 | Primary composite endpoint, HR (95% CI) [25]: 0.70 | Key secondary composite endpoint, HR (95% CI) [26]: 0.79 | Primary composite endpoint, HR (95% CI) [26]: 0.69 | Total primary endpoint events, rate ratio (negative binomial model, Example 3): 0.70 | Total key secondary composite endpoint events, HR (95% CI) [27]: 0.71 | Total primary composite endpoint events, RR (95% CI) [27]: 0.69 | Total key secondary composite endpoint events, RR (95% CI) [28]: 0.72 | Total primary composite endpoint events, RR (95% CI) [28]: 0.70 | Total key secondary composite endpoint events, RR (95% CI) [29]: 0.71 | Total primary composite endpoint events, RR (95% CI) [29]: 0.67 | Total key secondary composite endpoint events, RR (95% CI) [30]: 0.71 | Total primary composite endpoint events, RR (95% CI) [30]: 0.68 | Total key secondary endpoint events, HR (overall): 0.71 | Cardiovascular deaths that could be prevented [31]: 1 | Coronary revascularizations that could be prevented [31]: 8 | Episodes of unstable angina that could be prevented [31]: 2 | Myocardial infarctions that could be prevented [31]: 4 | Strokes that could be prevented [31]: 1 | Cardiovascular deaths that could be prevented [32]: 12 | Coronary revascularizations that could be prevented [32]: 76 | Episodes of hospitalization for unstable angina that could be prevented [32]: 16 | Myocardial infarctions that could be prevented [32]: 42 | Strokes that could be prevented [32]: 14 | Primary endpoint: fatal events, % [33]: (45.0) % | Primary endpoint: total events after reduction, % [33]: (41.0) % | Total key secondary endpoint events, HR (primary prevention stratum): 0.71 | Total key secondary endpoint events, HR (secondary prevention stratum): 0.70 | Key Secondary Endpoint Events, % [34]: (42.0) % | Primary Endpoint Events, % [34]: (40.7) %
